According to publication PMC12042115 (mLife, 2025):
Like-named read-outs stand apart in the source and are kept apart here.

Tested on: wild‐type BCG cells
Type: cell-based, M. bovis BCG
Conditions: for Mean_Ratio GDI5755_3d: DMSO_3d: Table S6; for Mean Ratio: GDI5755_2d vs DMSO_2d; for Mean Ratio / Mean Ratio (GDI5755_2d vs DMSO_2d): up-regulated; for Mean_Ratio (GDI5755_3d vs DMSO_3d): down-regulated, 3 d; for Mean Ratio (GDI5755_2d vs DMSO_2d): 2d

With O=C(Oc1ccc(Cl)cc1)c1ccc(N2CCOCC2)c([N+](=O)[O-])c1 [GDI‐5755] the “Mean_Ratio GDI5755_3d: DMSO_3d” value (BCG_1101c Serine protease) was 1.4, the “Mean_Ratio GDI5755_3d: DMSO_3d” value (BCG_1189c HNH nuclease domain-containing protein) was 1.3 and the “Mean_Ratio GDI5755_3d: DMSO_3d” value (BCG_1283 Probable serine protease htrA) was 1.3. The “Mean_Ratio GDI5755_3d: DMSO_3d” value (BCG_1324 Uncharacterized protein) was 1.3, the “Mean_Ratio GDI5755_3d: DMSO_3d” value (BCG_1333 Lipoprotein lprB) was 1.3 and the “Mean_Ratio GDI5755_3d: DMSO_3d” value (BCG_1334 Lipoprotein lprC) was 1.3. The “Mean_Ratio GDI5755_3d: DMSO_3d” value (BCG_1438c Transferase) was 1.3, the “Mean_Ratio GDI5755_3d: DMSO_3d” value (BCG_1471c Probable triacylglyceride transporter) was 1.3 and the “Mean_Ratio GDI5755_3d: DMSO_3d” value (BCG_1492 Conserved membrane protein) was 1.3. For the same compound, the “Mean_Ratio GDI5755_3d: DMSO_3d” value (BCG_1523 Fe-S cluster assembly protein SufD) was 1.3, the “Mean_Ratio GDI5755_3d: DMSO_3d” value (BCG_1532 Thioredoxin) was 1.3 and the “Mean_Ratio GDI5755_3d: DMSO_3d” value (BCG_1543 UPF0353 protein) was 1.3. For the same compound, the “Mean_Ratio GDI5755_3d: DMSO_3d” value (BCG_1787 DUF4129 domain-containing protein) was 1.4, the “Mean_Ratio GDI5755_3d: DMSO_3d” value (BCG_1890c NADH dehydrogenase ndh) was 1.5 and the “Mean_Ratio GDI5755_3d: DMSO_3d” value (BCG_1937 Thiamine-binding protein-containing protein) was 1.3. The “Mean_Ratio GDI5755_3d: DMSO_3d” value (BCG_1984 HNH nuclease domain-containing protein) was 1.3, the “Mean_Ratio GDI5755_3d: DMSO_3d” value (BCG_2183c Transcriptional regulator MraZ) was 1.3 and the “Mean_Ratio GDI5755_3d: DMSO_3d” value (BCG_2241c Serine protease Hip1) was 1.3. The “Mean_Ratio GDI5755_3d: DMSO_3d” value (BCG_2351c Probable lipoprotein lppP) was 1.3, the “Mean_Ratio GDI5755_3d: DMSO_3d” value (BCG_2486c DSBA-like thioredoxin domain-containing protein) was 1.7 and the “Mean_Ratio GDI5755_3d: DMSO_3d” value (BCG_2516c pyruvate dehydrogenase E1 component pdhB) was 1.3. For the same compound, the “Mean_Ratio GDI5755_3d: DMSO_3d” value (BCG_2656 Uncharacterized protein) was 1.4, the “Mean_Ratio GDI5755_3d: DMSO_3d” value (BCG_2721c DUF3039 domain-containing protein) was 1.4 and the “Mean_Ratio GDI5755_3d: DMSO_3d” value (BCG_2723 RNA polymerase sigma factor, sigB) was 1.3. For the same compound, the “Mean_Ratio GDI5755_3d: DMSO_3d” value (BCG_2934c Possible D-amino acid aminohydrolase) was 1.4, the “Mean_Ratio GDI5755_3d: DMSO_3d” value (BCG_3028 conserved lipoprotein lppZ) was 1.3 and the “Mean_Ratio GDI5755_3d: DMSO_3d” value (BCG_3153c Diacylglycerol O-acyltransferase) was 1.4. For the same compound, the “Mean_Ratio GDI5755_3d: DMSO_3d” value (BCG_3164 Probable NADPH quinone oxidoreductase fadB4) was 1.2, the “Mean_Ratio GDI5755_3d: DMSO_3d” value (BCG_3165c Uncharacterized protein) was 1.3 and the “Mean_Ratio GDI5755_3d: DMSO_3d” value (BCG_3185c Dioxygenase) was 2.2. For the same compound, the “Mean_Ratio GDI5755_3d: DMSO_3d” value (BCG_3269c Protein translocase subunit SecA 1) was 1.2, the “Mean_Ratio GDI5755_3d: DMSO_3d” value (BCG_3476 Probable dioxygenase) was 1.6 and the “Mean_Ratio GDI5755_3d: DMSO_3d” value (BCG_3583 Acetoacetate decarboxylase) was 1.3. The “Mean_Ratio GDI5755_3d: DMSO_3d” value (BCG_3590 Rieske-type oxygenase) was 1.4, the “Mean_Ratio GDI5755_3d: DMSO_3d” value (BCG_3674c ATP-dependent zinc metalloprotease FtsH) was 1.3 and the “Mean_Ratio GDI5755_3d: DMSO_3d” value (BCG_3709 Rv3651-like N-terminal domain-containing protein) was 1.3. The “Mean_Ratio GDI5755_3d: DMSO_3d” value (BCG_3824c Two-component transcriptional regulator TcrX) was 1.4, the “Mean_Ratio GDI5755_3d: DMSO_3d” value (BCG_3881 Uncharacterized protein) was 1.4 and the “Mean_Ratio GDI5755_3d: DMSO_3d” value (BCG_3905c Glycerol phosphoryl diester phosphodiesterase glpQ1) was 1.3. The “Mean_Ratio (GDI5755_2d vs DMSO_2d), protein L-serine dehydratase” value (iTRAQ protein abundance ratio, 2 d treatment vs DMSO, sheet down-regulated, Protein_ID A0A0H3M0L9, Pvalue 5.14E-04) was 0.80, the “Mean_Ratio (GDI5755_2d vs DMSO_2d), protein Endonuclease NucS” value (iTRAQ protein abundance ratio, 2 d treatment vs DMSO, sheet down-regulated, Protein_ID A0A0H3M5R4, Pvalue 4.43E-04) was 0.80 and the “Mean_Ratio (GDI5755_2d vs DMSO_2d), protein Trehalose 2-sulfotransferase” value (iTRAQ protein abundance ratio, 2 d treatment vs DMSO, sheet down-regulated, Protein_ID A0A0H3M7Q0, Pvalue 1.60E-03) was 0.80. For the same compound, the “Mean_Ratio (GDI5755_2d vs DMSO_2d), protein DUF3263 domain-containing protein” value (iTRAQ protein abundance ratio, 2 d treatment vs DMSO, sheet down-regulated, Protein_ID A0A0H3M274, Pvalue 5.23E-03) was 0.80, the “Mean_Ratio (GDI5755_2d vs DMSO_2d), protein Translation initiation factor IF-3” value (iTRAQ protein abundance ratio, 2 d treatment vs DMSO, sheet down-regulated, Protein_ID A0A0H3MDG6, Pvalue 1.81E-05) was 0.80 and the “Mean_Ratio (GDI5755_2d vs DMSO_2d), protein Possible conserved membrane or exported protein” value (iTRAQ protein abundance ratio, 2 d treatment vs DMSO, sheet down-regulated, Protein_ID A0A0H3MDQ9, Pvalue 5.91E-05) was 0.80. The “Mean_Ratio (GDI5755_2d vs DMSO_2d), protein Large ribosomal subunit protein uL22” value (iTRAQ protein abundance ratio, 2 d treatment vs DMSO, sheet down-regulated, Protein_ID A1KGI7, Pvalue 5.54E-04) was 0.80, the “Mean_Ratio (GDI5755_2d vs DMSO_2d), protein ATP-dependent Clp protease ATP-binding subunit ClpX” value (iTRAQ protein abundance ratio, 2 d treatment vs DMSO, sheet down-regulated, Protein_ID A1KLF3, Pvalue 2.57E-03) was 0.80 and the “Mean Ratio” value (protein A0A0G2Q9F2 Ribonuclease P protein component) was 1.26. For the same compound, the “Mean_Ratio (GDI5755_3d vs DMSO_3d)” value (protein A0A0G2Q9J9, BCG_3329c (Rv3300c), Pseudouridine synthase RsuA/RluA-like domain-containing protein) was 0.7, the “Mean_Ratio (GDI5755_3d vs DMSO_3d)” value (protein A0A0G2Q9N9, BCG_0021 (Rv3915), N-acetylmuramoyl-L-alanine amidase CwlM) was 0.7 and the “Mean Ratio” value (protein A0A0H3M0K6 Probable conserved transmembrane protein) was 1.32. For the same compound, the “Mean Ratio” value (protein A0A0H3M0R3 Secreted antigen 85-c fbpC (85C)) was 1.28, the “Mean Ratio (GDI5755_2d vs DMSO_2d)” value (protein A0A0H3M1A8 Isoniazid inductible gene protein iniC) was 1.34 and the “Mean_Ratio (GDI5755_3d vs DMSO_3d)” value (protein A0A0H3M1E3, BCG_0162 (Rv0128), Probable conserved transmembrane protein) was 0.7. The “Mean Ratio (GDI5755_2d vs DMSO_2d)” value (protein A0A0H3M1F5 DUF427 domain-containing protein) was 1.39, the “Mean Ratio” value (protein A0A0H3M1G0 Possible conserved lipoprotein lpqK) was 1.28 and the “Mean_Ratio (GDI5755_3d vs DMSO_3d)” value (protein A0A0H3M1I3, BCG_0204 (Rv0167), Conserved hypothetical integral membrane protein yrbE1A) was 0.7. The “Mean_Ratio (GDI5755_3d vs DMSO_3d)” value (protein A0A0H3M1V2, BCG_0591c (Rv0547c), Possible oxidoreductase) was 0.757, the “Mean Ratio” value (protein A0A0H3M1X4 Probable dehydrogenase/reductase) was 1.28 and the “Mean Ratio” value (protein A0A0H3M1Z8 Isoniazid inductible gene protein iniA) was 1.28. For the same compound, the “Mean Ratio” value (protein A0A0H3M2A5 Carboxymuconolactone decarboxylase-like domain-containing protein) was 1.25, the “Mean Ratio” value (protein A0A0H3M2D4 Possible conserved transmembrane protein) was 1.26 and the “Mean_Ratio (GDI5755_3d vs DMSO_3d)” value (protein A0A0H3M2J1, BCG_0913c (Rv0861c), DNA helicase) was 0.746. For the same compound, the “Mean_Ratio (GDI5755_3d vs DMSO_3d)” value (protein A0A0H3M2K9, BCG_0627 (Rv0582), Ribonuclease VapC) was 0.74, the “Mean_Ratio (GDI5755_3d vs DMSO_3d)” value (protein A0A0H3M2L9, BCG_0933 (Rv0881), Possible rRNA methyltransferase) was 0.7 and the “Mean_Ratio (GDI5755_3d vs DMSO_3d)” value (protein A0A0H3M2M6, BCG_0648c (Rv0602c), Two component DNA binding/Transcriptional regulatory protein tcrA) was 0.7.
